How the values were obtained:
5-LOX = molecular target: T1, 5-LOX (Homo sapiens, UniProt P09917); details: of all the six boswellic acids; cited from earlier work
T1 sequence (P09917 1-674): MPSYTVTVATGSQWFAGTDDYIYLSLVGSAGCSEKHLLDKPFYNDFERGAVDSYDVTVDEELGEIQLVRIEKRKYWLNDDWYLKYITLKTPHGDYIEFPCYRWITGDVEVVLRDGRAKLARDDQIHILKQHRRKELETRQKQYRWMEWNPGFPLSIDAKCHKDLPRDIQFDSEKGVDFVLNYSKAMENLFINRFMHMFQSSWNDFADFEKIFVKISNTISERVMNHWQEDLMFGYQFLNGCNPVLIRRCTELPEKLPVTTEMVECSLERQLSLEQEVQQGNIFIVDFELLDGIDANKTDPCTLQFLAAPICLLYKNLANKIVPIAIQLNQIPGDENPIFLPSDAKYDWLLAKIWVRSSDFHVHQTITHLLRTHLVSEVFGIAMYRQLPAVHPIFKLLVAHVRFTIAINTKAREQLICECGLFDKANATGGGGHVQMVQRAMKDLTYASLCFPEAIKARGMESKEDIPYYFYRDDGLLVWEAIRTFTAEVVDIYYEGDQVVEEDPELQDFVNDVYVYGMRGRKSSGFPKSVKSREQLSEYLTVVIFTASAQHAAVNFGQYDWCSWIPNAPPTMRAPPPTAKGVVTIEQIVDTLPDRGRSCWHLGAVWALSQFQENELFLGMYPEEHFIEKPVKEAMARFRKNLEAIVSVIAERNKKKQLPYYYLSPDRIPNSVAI

[1] = tested on: Freund's Complete Adjuvant (FCA) challenged rats; experiment: Freund's Complete Adjuvant induced inflammation (paw volume) in rats; type: in vivo; details: 50 mg/kg daily in 1% CMC for 28 days, FCA on day 14, paw volumes at 28th day
Experimental: Test animals (rats, 200-300 g) of either sex were randomly distributed into different groups, with 5 animals in each group. Rats were supplemented daily with either demethylated curcuminoids (50 mg/kg) or enriched AKBA extract (50 mg/kg) or glucosamine (50 mg/kg), or reseveratrol (50 mg/kg), garlic extract (50 mg/kg) or ginger extract (50 mg/kg), or composition 7 (50 mg/kg) in 1% CMC for 28 days. The control group received same volume of vehicle (1% CMC); a standard drug, Prednisolone (10 mg/kg, orally) was used in the control treatment group. On the day 14, 100 μl of Freund's Complete Adjuvant (FCA) was injected subcutaneously in the sub planter region of the left hind paw. Blood samples were collected from each animal on the previous day of FCA challenge and at the day of termination of experiment i.e. 14 days after challenge. At the 28th day paw volumes were measured and after sacrificing the animals, liver tissues were excised and stored at −80° C. until further use.

SMILES | inhibitory activity against 5-LOX (in words) (5-LOX) | percent of inhibitions [1]
CC(=O)O[C@H]1CC[C@@]2(C)C(CC[C@]3(C)C2C(=O)C=C2C4[C@@H](C)[C@@H](C)CC[C@]4(C)CC[C@@]23C)[C@]1(C)C(=O)O (stereo partly drawn) [AKBA, 3-O-acetyl-11-keto-β-boswellic acid] | most pronounced inhibitory activity | –
N[C@H]1C(O)O[C@H](CO)[C@@H](O)[C@@H]1O (stereo partly drawn) [Glucosamine, glucosamine] | – | 5.5%
Oc1ccc(/C=C/c2cc(O)cc(O)c2)cc1 [Reseveratrol, reseveratrol] | – | 20.5%
